Laboratory results from patent publication US20070026433A1, “Epitope testing using soluble HLA” (priority 2001, published 2007).
Read-outs that look alike come from different tables or passages of the source. Ends that are not written are not given here. Peptide text beside a SMILES is read from it. * marks the point of attachment. FITC = O=C1OC2(c3ccc(O)cc3Oc3cc(O)ccc32)c2ccc(NC(=S)*)cc21; 125I = [125I]*

What was measured:
HLA-A*0201 = HLA-A*0201 (Homo sapiens, UniProt P04439, D140Y/D185E/D98H/E176V/E277Q/G131W/G231S/I119V/I121R/I166T/I218V/L300P/L318F/N151K/N90K/P208A/P217A/Q86G/Q94H/R138H/R169H/T345S); settings: cited from earlier work; for IC50: read-out: cell-free systems (^125I) IC50, published values, 125I peptide tracer
sHLA-A*0201 [1] = target: T1, sHLA-A*0201 (Homo sapiens, UniProt P04439, D140Y/D185E/D98H/E176V/E277Q/G131W/G231S/I119V/I121R/I166T/I218V/L300P/L318F/N151K/N90K/P208A/P217A/Q86G/Q94H/R138H/R169H/T345S); assay: biochemical; settings: for kon: read-out: association rate constants kon
sHLA-A*0201 [2] = target: T1, sHLA-A*0201; assay: biochemical; type: binding; set-up: contained the leader peptide, as well as the α1, α2, and α3 coding domains of the HLA heavy chain; made in house; β2m from Fitzgerald Industries International
[3] = tested on: alleles listed for the B27 supertype; assay: Multiple-specificity screening of FITC-labeled peptides (supertyping, FP); type: binding, human; settings: 2 nM peptide, 100 μg/ml activated sHLA
Text: (§1) Multiple-specificity screening of FITC-labeled peptides: To approach the problem of supertype analysis, a novel, state-of-the-art screening assay was developed that utilizes high quality soluble HLA and the technique of fluorescence polarization (FP). This assay combination allows the direct measurement of the ratio between free and bound labeled ligand in solution without any separation steps. The technique of FP is based on the principal that if a fluorescent-labeled peptide binds to the sHLA molecule of higher molecular weight, polarization values will increase due to the slower molecular rotation of the bound probe.
(§2) To elaborate peptide cross-reactivity among MHC class I molecules, a panel of 53 single-specificity sHLA receptors was screened for their binding capacity towards a series of fluorescent-labeled peptide ligands. During the process, each peptide candidate (2 nM) was incubated with 100 μg/ml of activated sHLA and peptide/MHC interaction was monitored over time on the Analyst™ AD Assay Detection System (Molecular Devices; Sunnyvale, Calif.). For optimal signal output, b2-microglobulin was added in 2× molar excess of the used sHLA concentration. For all preparations, 1× BGG/PBS was used as buffer. The use of appropriate controls allowed accurate estimation of specific polarization. […]

A*1102 = target: T2, A*1102 (Homo sapiens, UniProt P04439, A114D/D185E/E176A/E43K/F33Y/L180Q/S129P/T187R); assay: as above; type: binding; settings: 2 nM peptide, 100 μg/ml activated sHLA
T2 construct: contained the leader peptide, as well as the α1, α2, and α3 coding domains of the HLA heavy chain; made in house
Text: as §1, §2

sHLA-A*0201 [4] = target: T1, sHLA-A*0201; assay: Epitope screening at a threshold concentration of 80 μM (FP competition); settings: 80 μM peptide, 50 μg/mL sHLA-A*0201, 1 nM P5, β2m 2117 nM
sHLA-A*0201 [5] = target: T1, sHLA-A*0201; type: binding; set-up: contained the leader peptide, as well as the α1, α2, and α3 coding domains of the HLA heavy chain; made in house; β2m from Fitzgerald Industries International; settings: 10 nM pFITC, sHLA-A*0201 titration
sHLA-A*0201 [6] = target: T1, sHLA-A*0201; assay: Multiple specificity screening by FP; type: binding; set-up: contained the leader peptide, as well as the α1, α2, and α3 coding domains of the HLA heavy chain; made in house; β2m from Fitzgerald Industries International; settings: 10 nM peptide, 100 μg/mL activated sHLA
Procedure: Multiple Specificity Screening. To determine the specificity for sHLA-A*0201 as well as potential cross-reactivity to other sHLA alleles, 48 different sHLA alleles were screened for binding with the A*0201 pFITC constructs (FIG. 15). For screening purposes, each peptide candidate (10 nM) was incubated with 100 μg/mL activated sHLA, and the peptide/HLA interaction was monitored over time. As expected, no significant binding was detected to any of the B-alleles tested (FIG. 15B), whereas a high binding affinity was observed between sHLA-A*0201 and the pFITC candidates. An exception was pFITC P3 (FIG. 15A). […] The significant decrease in association kinetics recorded after 0.8 h seems to imply that the HLA class I molecule is not stabilized following exposure to this peptide, irrespective of whether it attempted to bind. […] Thus, modification of the residue at the P4 nonanchor position of pFITC P3 may not affect the specificity and association kinetics of peptide binding but rather seems to affect the stability of the class I peptide interaction.

[7] = cited from earlier work
[8] = read-out: dissociation rate constants
[9] = read-out: dissociation rate constants koff
[10] = 50 μg/mL (1059 nM) sHLA-A*0201, β2m 2117 nM, 1 nM FITC-labeled reference peptide P5, read-out: StD comp assay (FP) IC50

For `CC[C@H](C)[C@H](NC(=O)[C@H](Cc1c[nH]c2ccccc12)NC(=O)[C@@H](NC(=O)CNC(=O)[C@H](Cc1ccccc1)NC(=O)[C@H](CO)NC(=O)[C@@H](NC(=O)[C@H](CC(C)C)NC(=O)[C@@H](N)Cc1ccc(O)cc1)C(C)C)C(C)C)C(=O)O`, the IC50 (HLA-A*0201) is given as 0.0019 µM.

`CC(C)C[C@H](N)C(=O)N[C@H](C(=O)N[C@@H](Cc1ccccc1)C(=O)NCC(=O)N[C@@H](CCCCNC(=S)Nc1ccc2c(c1)C(=O)OC21c2ccc(O)cc2Oc2cc(O)ccc21)C(=O)N[C@@H](CCC(=O)O)C(=O)N[C@H](C(=O)N[C@H](C(=O)N[C@@H](CCC(=O)O)C(=O)N[C@H](C(=O)O)C(C)C)C(C)C)C(C)C)C(C)C` [P4, L V F G K E V V E V] (H-LVFGK(FITC)EVVEV-OH) showed a kon (sHLA-A*0201 [1]) of 9900 M⁻¹ s⁻¹, a koff (sHLA-A*0201 [1]; [8]) of 0.00019 to 0.00043 s⁻¹ and a koff (sHLA-A*0201 [1]; [9]) of 0.000284 s⁻¹.

For `CSCC[C@H](NC(=O)[C@H](CC(C)C)NC(=O)[C@H](C)N)C(=O)N[C@@H](CC(=O)O)C(=O)N[C@@H](CCCCN)C(=O)N[C@H](C(=O)N[C@@H](CC(C)C)C(=O)N[C@@H](CCCCNC(=S)Nc1ccc2c(c1)C(=O)OC21c2ccc(O)cc2Oc2cc(O)ccc21)C(=O)N[C@H](C(=O)O)C(C)C)C(C)C` [P5], the kon (sHLA-A*0201 [1]) was 86800 M⁻¹ s⁻¹, the koff (sHLA-A*0201 [1]; [8]) was 0.00019 to 0.00043 s⁻¹ and the koff (sHLA-A*0201 [1]; [9]) was 0.000188 s⁻¹.

In the case of DLVHFASPL, the IC50 (sHLA-A*0201 [2]; [10]) is given as 366 µM and the IC50 (HLA-A*0201) is given as 16.7 µM.

In the case of “FLPSDY(^125I)FPSV (FLPSDY(125I)FPSV; listed as Homo sapiens) [iodinated molecule of earlier publications (Sette et al., 1994a)]”, the Kd (HLA-A*0201; Sette et al., 1994a, read-out: affinity of the iodinated molecule in earlier publications) is listed as 0.0155 µM.

In the case of GRAFVTIKK, the binding [3] is reported as “did not bind” and the binding capacity (A*1102) is reported as “high A*1102 binding capacity”.

In the case of KLGEFYNQMM, the IC50 (sHLA-A*0201 [2]; [10]) is reported as 2.82 µM, the IC50 (sHLA-A*0201 [2]; IC50 with different pFITC reference peptides) is reported as 2.48 to 10.5 µM and the IC50 (sHLA-A*0201 [2]; IC50 within the different tracer systems) is reported as 2.48 to 10.5 µM.

For LVMAPRTVL (listed as Homo sapiens), the “inhibition at 80 μM” value (sHLA-A*0201 [4]) was “minor”.

With “N L S K L S L D V (NLSKLSLDV; also: FITC label, position not given here; listed as Homo sapiens) [P3]” the “saturation curve / stable complex formation with sHLA-A*0201” value (sHLA-A*0201 [5]) was “not able to form stable complexes with sHLA-A*0201” and the binding (sHLA-A*0201 [6]) was “failed to attain a higher polarization level compared to the other candidates”.

In the case of YLLPAIVHI, the IC50 (sHLA-A*0201 [2]; [10]) is given as 0.51 µM and the IC50 (HLA-A*0201) is given as 0.018 µM.

In the case of fluorescein isothiocyanate [FITC], the pKa [7] is listed as “approximately 6.5”.
